In one assay the target is T1, full length AKT E17K (Homo sapiens, UniProt P31749, E17K).
T1 construct: host or cells: HEK-293 (ATCC CRL-1573)
T1 sequence (P31749 whole entry E17K): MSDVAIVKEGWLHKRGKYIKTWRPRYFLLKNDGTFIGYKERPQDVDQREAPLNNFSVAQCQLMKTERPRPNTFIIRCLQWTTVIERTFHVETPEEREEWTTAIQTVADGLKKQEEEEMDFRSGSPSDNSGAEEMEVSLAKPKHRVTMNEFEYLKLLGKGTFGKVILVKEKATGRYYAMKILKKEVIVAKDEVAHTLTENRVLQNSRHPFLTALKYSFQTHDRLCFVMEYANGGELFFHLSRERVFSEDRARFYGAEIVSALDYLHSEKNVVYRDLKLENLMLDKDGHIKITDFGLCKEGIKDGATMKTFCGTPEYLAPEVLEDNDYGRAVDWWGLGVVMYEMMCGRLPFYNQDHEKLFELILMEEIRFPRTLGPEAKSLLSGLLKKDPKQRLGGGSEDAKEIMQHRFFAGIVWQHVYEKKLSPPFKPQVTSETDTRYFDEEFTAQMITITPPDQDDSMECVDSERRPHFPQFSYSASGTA
The assay is described as follows: NanoBRET Target Engagement (TE) Assay. Type of assay: cell-based. Conditions: competitive displacement of tracer in cells, read-out: AKT1 E17K IC50. A digest of the protocol: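 Compound and tracer incubated 2 h before luminescence at donor 450 nm and acceptor 600 nm, with extracellular signal inhibited. EC50 by sigmoidal variable-slope regression.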
For orientation: Bioluminescence resonance energy transfer reports proximity on the nanometre scale.
In the case of `N#Cc1nccc(NC2CCN(Cc3ccc(-n4c(-c5cccnc5N)nc5ccc(N6CCCNC(=O)C6)nc54)cc3)CC2)n1` [Example 318, 4-((1-(4-(2-(2-Aminopyridin-3-yl)-5-(3-oxo-1,4-diazepan-1-yl)-3H-imidazo[4,5-b]pyridin-3-yl)benzyl)piperidin-4-yl)amino)pyrimidine-2-carbonitrile], the IC50 was in the range of 15 to 60 nM.

For the compound `N#Cc1ccc(-c2ccc3nc(-c4cccnc4N)n(-c4ccc(CN5CCN(c6nccc(C#N)n6)CC5)cc4)c3n2)cc1` [Example 319, 2-(4-(4-(2-(2-Aminopyridin-3-yl)-5-(4-cyanophenyl)-3H-imidazo[4,5-b]pyridin-3-yl)benzyl)piperazin-1-yl)pyrimidine-4-carbonitrile], the concentration for half-maximal inhibition (IC50) lay within 60 to 600 nM.

With `N#Cc1ccc(-c2ccc3nc(-c4cccnc4N)n(-c4ccc(CN5CCC(Nc6ccnc(C#N)n6)CC5)cc4)c3n2)cc1` [Example 320, 4-((1-(4-(2-(2-Aminopyridin-3-yl)-5-(4-cyanophenyl)-3H-imidazo[4,5-b]pyridin-3-yl)benzyl)piperidin-4-yl)amino)pyrimidine-2-carbonitrile], the IC50 was under 15 nM.

Take `N#Cc1ccc(-c2ccc3nc(-c4cccnc4N)n(-c4ccc(CN5CCC(Nc6nccc(C#N)n6)CC5)cc4)c3n2)cc1` [Example 321, 2-((1-(4-(2-(2-Aminopyridin-3-yl)-5-(4-cyanophenyl)-3H-imidazo[4,5-b]pyridin-3-yl)benzyl)piperidin-4-yl)amino)pyrimidine-4-carbonitrile]: the IC50 lay in the range of 60 to 600 nM.

Turning to `N#Cc1ccnc(N2CCN(Cc3ccc(-n4c(-c5cccnc5N)nc5ccc(-c6ccccc6C#N)nc54)cc3)CC2)n1` [Example 322, 2-(4-(4-(2-(2-Aminopyridin-3-yl)-5-(2-cyanophenyl)-3H-imidazo[4,5-b]pyridin-3-yl)benzyl)piperazin-1-yl)pyrimidine-4-carbonitrile], the 50% inhibitory concentration (IC50) lay in the range of 15 to 60 nM.

In the case of `N#Cc1nccc(NC2CCN(Cc3ccc(-n4c(-c5cccnc5N)nc5ccc(N6CCNC(=O)CC6)nc54)cc3)CC2)n1` [Example 323, 4-((1-(4-(2-(2-Aminopyridin-3-yl)-5-(5-oxo-1,4-diazepan-1-yl)-3H-imidazo[4,5-b]pyridin-3-yl)benzyl)piperidin-4-yl)amino)pyrimidine-2-carbonitrile], the IC50 lay within 600 to 10000 nM.

On to `N#Cc1nccc(N2CCN(Cc3ccc(-n4c(-c5cccnc5N)nc5ccc(-c6ccccc6Cl)nc54)cc3)CC2)n1` [Example 324, 4-(4-(4-(2-(2-Aminopyridin-3-yl)-5-(2-chlorophenyl)-3H-imidazo[4,5-b]pyridin-3-yl)benzyl)piperazin-1-yl)pyrimidine-2-carbonitrile], for which the IC50 is under 15 nM.

Take `N#Cc1ccnc(N2CCN(Cc3ccc(-n4c(-c5cccnc5N)nc5ccc(-c6ccccc6Cl)nc54)cc3)CC2)n1` [Example 325, 2-(4-(4-(2-(2-Aminopyridin-3-yl)-5-(2-chlorophenyl)-3H-imidazo[4,5-b]pyridin-3-yl)benzyl)piperazin-1-yl)pyrimidine-4-carbonitrile]: the IC50 fell in the range of 15 to 60 nM.

Still in this assay, the particulars now being: competitive tracer displacement in living cells, read-out: AKT1 E17K IC50.
In the case of `N#Cc1ncnc(NC2CN(Cc3ccc(-n4c(-c5cccnc5N)nc5ccc(-c6ccccc6)nc54)cc3)C2)n1` [Example 300, 4-((1-(4-(2-(2-Aminopyridin-3-yl)-5-phenyl-3H-imidazo[4,5-b]pyridin-3-yl)benzyl)azetidin-3-yl)amino)-1,3,5-triazine-2-carbonitrile], the IC50 lay within 15 to 60 nM.

In the case of `N#Cc1ncnc(N2CC3(CCN(Cc4ccc(-n5c(-c6cccnc6N)nc6ccc(-c7ccccc7)nc65)cc4)C3)C2)n1` [Example 301, 4-(6-(4-(2-(2-Aminopyridin-3-yl)-5-phenyl-3H-imidazo[4,5-b]pyridin-3-yl)benzyl)-2,6-diazaspiro[3.4]octan-2-yl)-1,3,5-triazine-2-carbonitrile], the IC50 was under 15 nM.

With `N#Cc1nccc(N2CCC3(CCN(Cc4ccc(-n5c(-c6cccnc6N)nc6ccc(-c7ccccc7)nc65)cc4)C3)C2)n1` (centres unmarked) [Example 302, 4-(7-(4-(2-(2-Aminopyridin-3-yl)-5-phenyl-3H-imidazo[4,5-b]pyridin-3-yl)benzyl)-2,7-diazaspiro[4.4]nonan-2-yl)pyrimidine-2-carbonitrile], the concentration for half-maximal inhibition (IC50) was under 15 nM.

Consider `N#Cc1ncnc(N2CC3(CN(Cc4ccc(-n5c(-c6cccnc6N)nc6ccc(-c7ccccc7)nc65)cc4)C3)C2)n1` [Example 303, 4-(6-(4-(2-(2-Aminopyridin-3-yl)-5-phenyl-3H-imidazo[4,5-b]pyridin-3-yl)benzyl)-2,6-diazaspiro[3.3]heptan-2-yl)-1,3,5-triazine-2-carbonitrile], for which the IC50 is under 15 nM.

Regarding `N#Cc1ncnc(N2CCN(Cc3ccc(-n4c(-c5cccnc5N)nc5ccc(-c6ccccc6Cl)nc54)cc3)CC2)n1` [Example 304, 4-(4-(4-(2-(2-Aminopyridin-3-yl)-5-(2-chlorophenyl)-3H-imidazo[4,5-b]pyridin-3-yl)benzyl)piperazin-1-yl)-1,3,5-triazine-2-carbonitrile], the IC50 is under 15 nM.

For the compound `N#Cc1nccc(NC2CCN(Cc3ccc(-n4c(-c5cccnc5N)nc5ccc(-c6ccccc6Cl)nc54)cc3)CC2)n1` [Example 305, 4-((1-(4-(2-(2-Aminopyridin-3-yl)-5-(2-chlorophenyl)-3H-imidazo[4,5-b]pyridin-3-yl)benzyl)piperidin-4-yl)amino)pyrimidine-2-carbonitrile], the IC50 is under 15 nM.

Take `N#Cc1ccnc(NC2CCN(Cc3ccc(-n4c(-c5cccnc5N)nc5ccc(-c6ccccc6Cl)nc54)cc3)CC2)n1` [Example 306, 2-((1-(4-(2-(2-Aminopyridin-3-yl)-5-(2-chlorophenyl)-3H-imidazo[4,5-b]pyridin-3-yl)benzyl)piperidin-4-yl)amino)pyrimidine-4-carbonitrile]: the IC50 is 15 to 60 nM.

Turning to `N#Cc1cc(NC2CCN(Cc3ccc(-n4c(-c5cccnc5N)nc5ccc(-c6ccccc6Cl)nc54)cc3)CC2)ncn1` [Example 307, 6-((1-(4-(2-(2-Aminopyridin-3-yl)-5-(2-chlorophenyl)-3H-imidazo[4,5-b]pyridin-3-yl)benzyl)piperidin-4-yl)amino)pyrimidine-4-carbonitrile], the half-maximal inhibitory concentration (IC50) lay within 60 to 600 nM.

For the compound `N#Cc1nccc(NC2CCN(Cc3ccc(-n4c(-c5cccnc5N)nc5ccc(-c6ccc(Cl)cc6)nc54)cc3)CC2)n1` [Example 308, 4-((1-(4-(2-(2-Aminopyridin-3-yl)-5-(4-chlorophenyl)-3H-imidazo[4,5-b]pyridin-3-yl)benzyl)piperidin-4-yl)amino)pyrimidine-2-carbonitrile], the IC50 was under 15 nM.

Turning to `N#Cc1ccnc(N2CCN(Cc3ccc(-n4c(-c5cccnc5N)nc5ccc(-c6cccc(F)c6)nc54)cc3)CC2)n1` [Example 309, 2-(4-(4-(2-(2-Aminopyridin-3-yl)-5-(3-fluorophenyl)-3H-imidazo[4,5-b]pyridin-3-yl)benzyl)piperazin-1-yl)pyrimidine-4-carbonitrile], the IC50 is 15 to 60 nM.

In the case of `N#Cc1cc(N2CCN(Cc3ccc(-n4c(-c5cccnc5N)nc5ccc(-c6cccc(F)c6)nc54)cc3)CC2)ncn1` [Example 310, 6-(4-(4-(2-(2-Aminopyridin-3-yl)-5-(3-fluorophenyl)-3H-imidazo[4,5-b]pyridin-3-yl)benzyl)piperazin-1-yl)pyrimidine-4-carbonitrile], the IC50 was under 15 nM.

Regarding `N#Cc1cc(NC2CCN(Cc3ccc(-n4c(-c5cccnc5N)nc5ccc(-c6cccc(F)c6)nc54)cc3)CC2)ncn1` [Example 311, 6-((1-(4-(2-(2-Aminopyridin-3-yl)-5-(3-fluorophenyl)-3H-imidazo[4,5-b]pyridin-3-yl)benzyl)piperidin-4-yl)amino)pyrimidine-4-carbonitrile], the IC50 was under 15 nM.

Turning to `N#Cc1ncnc(N2CCN(Cc3ccc(-n4c(-c5cccnc5N)nc5ccc(-c6ccccc6F)nc54)cc3)CC2)n1` [Example 312, 4-(4-(4-(2-(2-Aminopyridin-3-yl)-5-(2-fluorophenyl)-3H-imidazo[4,5-b]pyridin-3-yl)benzyl)piperazin-1-yl)-1,3,5-triazine-2-carbonitrile], the half-inhibitory concentration (IC50) is under 15 nM.

In the case of `N#Cc1ccnc(NC2CCN(Cc3ccc(-n4c(-c5cccnc5N)nc5ccc(-c6ccccc6F)nc54)cc3)CC2)n1` [Example 313, 2-((1-(4-(2-(2-Aminopyridin-3-yl)-5-(2-fluorophenyl)-3H-imidazo[4,5-b]pyridin-3-yl)benzyl)piperidin-4-yl)amino)pyrimidine-4-carbonitrile], the 50% inhibitory concentration (IC50) was under 15 nM.

For `N#Cc1cc(N2CCN(Cc3ccc(-n4c(-c5cccnc5N)nc5ccc(-c6ccccc6F)nc54)cc3)CC2)ncn1` [Example 314, 6-(4-(4-(2-(2-Aminopyridin-3-yl)-5-(2-fluorophenyl)-3H-imidazo[4,5-b]pyridin-3-yl)benzyl)piperazin-1-yl)pyrimidine-4-carbonitrile], the half-maximal inhibitory concentration (IC50) is under 15 nM.

Regarding `N#Cc1cc(NC2CCN(Cc3ccc(-n4c(-c5cccnc5N)nc5ccc(-c6ccccc6F)nc54)cc3)CC2)ncn1` [Example 315, 6-((1-(4-(2-(2-Aminopyridin-3-yl)-5-(2-fluorophenyl)-3H-imidazo[4,5-b]pyridin-3-yl)benzyl)piperidin-4-yl)amino)pyrimidine-4-carbonitrile], the IC50 lay in the range of 15 to 60 nM.

Regarding `N#Cc1nccc(NC2CCN(Cc3ccc(-n4c(-c5cccnc5N)nc5ccc(-c6ccccc6F)nc54)cc3)CC2)n1` [Example 316, 4-((1-(4-(2-(2-Aminopyridin-3-yl)-5-(2-fluorophenyl)-3H-imidazo[4,5-b]pyridin-3-yl)benzyl)piperidin-4-yl)amino)pyrimidine-2-carbonitrile], the concentration for half-maximal inhibition (IC50) was under 15 nM.

As to `N#Cc1nccc(N2CCN(Cc3ccc(-n4c(-c5cccnc5N)nc5ccc(N6CCCNC(=O)C6)nc54)cc3)CC2)n1` [Example 317, 4-(4-(4-(2-(2-Aminopyridin-3-yl)-5-(3-oxo-1,4-diazepan-1-yl)-3H-imidazo[4,5-b]pyridin-3-yl)benzyl)piperazin-1-yl)pyrimidine-2-carbonitrile], the half-inhibitory concentration (IC50) fell in the range of 60 to 600 nM.

For orientation: IC50 means the concentration needed to halve the response being measured.
